Bounds are passed on as bounds.

Data set [1] has as its target T1, Human immunodeficiency virus type 1 integrase (Human immunodeficiency virus 1, UniProt Q7ZJM1). In words: Inhibition of HIV1 integrase using U5A/U5B double-stranded DNA as substrate by ELISA.
Data set [2] has as its system Human immunodeficiency virus 1. In words: Antiviral activity against HIV1 3B infected in human MT4 cells assessed as inhibition of virus-induced cytopathic effect by MTT assay. Format: functional, organism-based. Conditions: Human immunodeficiency virus 1, 3B.
Data set [3] is described as follows: Cytotoxicity against human MT4 cells by MTT assay. The class given is cell-based. For orientation: Tetrazolium assays rely on reduction of a dye to a coloured formazan, in cell work by metabolically active cells.
For data set [4], the target named is T1, Human immunodeficiency virus type 1 integrase. In words: Inhibition of HIV1 integrase using U5A/U5B double-stranded DNA as substrate by ELISA in presence of BSA. For orientation: In an ELISA, binding on a coated surface is turned into a signal by an enzyme label.

T1 sequence (Q7ZJM1 whole entry): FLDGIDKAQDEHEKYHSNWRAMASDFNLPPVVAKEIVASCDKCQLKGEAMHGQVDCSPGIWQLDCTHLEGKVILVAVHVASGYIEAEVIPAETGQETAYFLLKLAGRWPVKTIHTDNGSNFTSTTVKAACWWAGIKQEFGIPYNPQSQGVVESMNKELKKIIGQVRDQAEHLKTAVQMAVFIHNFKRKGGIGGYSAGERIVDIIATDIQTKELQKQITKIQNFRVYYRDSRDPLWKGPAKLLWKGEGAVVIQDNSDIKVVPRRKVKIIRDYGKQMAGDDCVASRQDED

For orientation: IC50 means the concentration that gives 50% inhibition. As usually defined, the EC50 is the concentration giving half of the maximal effect. Usually CC50 stands for the concentration that lowers cell viability or growth by half. A low value points to harm at low concentration. `O=C(O)C(O)C(O)(Cc1ccc(O)c(O)c1)C(=O)O` (racemic): the IC50 in data set [1] came to 0.25 µM; in data set [4], 17 µM. In addition, the EC50 in data set [2] is above 22 µM. This compound also yielded a CC50 in data set [3] of 22 µM.

The values are drawn from ChEMBL document CHEMBL1154442, “The total synthesis of fukiic acid, an HIV-1 integrase inhibitor” (Eur J Med Chem, 2008).
